Experimental data reported in patent publication US9072660B2, “Topical itraconazole formulations and uses thereof” (THE BOARD OF TRUSTEES OF THE LELAND STANFORD JUNIOR …, priority 2011, dated 2015).

Key:
BCCs (Smo) = conditions: cited from earlier work
[1] = cited from earlier work
[2] = test system: BSZ BCC tumor cell line (GLI1 mRNA); assay: GLI1 mRNA expression in BCC tumor cell line BSZ; format: cell-based, mice; conditions: BSZ cells, vs DMSO control
BCC tumors [3] = assay: oral itraconazole on endogenous BCC tumors in PTCH1+/- K14-Cre-ER2 p53fl/fl mice; format: in vivo
BCC tumors [4] = assay: oral itraconazole in patients with BCC tumors; format: in vivo, humans; conditions: oral 400 mg per day for 1 month
[5] = cited from earlier work; remark: listed apart in the source
[6] = test system: ASZ BCC tumor cell line (GLI1 mRNA); assay: GLI1 mRNA expression in BCC tumor cell line ASZ; format: cell-based, mice; conditions: ASZ cells, vs DMSO control
[7] = test system: Hedgehog signaling pathway (Smo); conditions: cited from earlier work

Structure (SMILES) | inhibition of BCCs (BCCs (Smo); model systems (in vitro and in vivo)) | side effects (BCCs (Smo); systemic use) | Half-life ([1]; in vivo) | Oral Bio-availability ([1]; with meal) | GLI1 mRNA expression ([2]; 0.1 μM) | GLI1 mRNA expression ([2]; 1.0 μM) | serum concentrations required for oral anti-BCC effect in mouse vs those reached in humans at regular therapeutic doses (400 mg/day orally) (BCC tumors [3]; in vivo mouse studies) | BCC tumor necrosis (BCC tumors [3]; itraconazole 400 mg/day vs cyclodextrin control treated mice, P<0.02, FIG. 2 left) | reduction of BCC tumor size (BCC tumors [3]; oral gavage, 200 mg BID, in 15 days, vs control (cyclodextrin or acetone), P<0.05, FIG. 1) | change of BCC tumor size on average (95% Confidence Interval: 11% to −62%) (BCC tumors [4]) | Protein binding [5] | GLI1 mRNA expression ([6]; 0.1 μM) | GLI1 mRNA expression ([6]; 1.0 μM) | ciliary accumulation of Smo normally caused by HH stimulation [7] | inhibition of the HH signaling pathway ([7]; model cell-based assays, by binding to Smo) | expression of the HH target gene GLI1 ([7]; model cell-based assays)
CC1=C2C[C@H]3[C@@H](CC=C4C[C@@H](O)CC[C@@]43C)[C@@H]2CC[C@]12O[C@@H]1C[C@H](C)CN[C@H]1[C@H]2C [cyclopamine] | effectively inhibited | severe side effects |  |  |  |  |  |  |  |  |  |  |  |  |  | 
CCC(C)n1ncn(-c2ccc(N3CCN(c4ccc(OC[C@H]5CO[C@](Cn6cncn6)(c6ccc(Cl)cc6Cl)O5)cc4)CC3)cc2)c1=O (relative stereo) [itraconazole, (2R,4S)-rel-1-(butan-2-yl)-4-{4-[4-(4-{[(2R,4S)-2-(2,4-dichlorophenyl)-2-(1H-1,2,4-triazol-1-ylmethyl)-1,3-dioxolan-4-yl]methoxy}phenyl)piperazin-1-yl]phenyl]-4,5-dihydro-1H-1,2,4-triazol-5-one] |  |  | 21 h | 55% | reduced | reduced | appreciably higher | caused BCC tumor necrosis | 50% | −21% | 99.8% | reduced | reduced | prevents | potently inhibited | decreased
